pIC50: −log10 of the molar value. Values after ≈ are worked out from the molar mass of the structure shown.
Legend:
[1] = target: Voltage-gated inwardly rectifying potassium channel KCNH2 (Homo sapiens, UniProt Q12809)
[2] = Oral bioavailability in rat at 1 mg/kg; assay type: ADME, organism-based; conditions: in vivo
Homo sapiens = species: Homo sapiens; assay: Selectivity ratio of IC50 for GST-tagged recombinant human JAK2 catalytic domain to IC50 for GST-tagged recombinant human JAK1 catalytic domain
[3] = target: Non-receptor tyrosine-protein kinase TYK2 (Homo sapiens, UniProt P29597)
[4] = target: T1, Tyrosine-protein kinase JAK1 (Homo sapiens, UniProt P23458)
[5] = target: T2, Tyrosine-protein kinase JAK2 (Homo sapiens, UniProt O60674)
[6] = Lipophilicity, log D of the compound at 100 uM at pH 7 by HPLC/DAD analysis; assay type: physicochemical; conditions: buffer
[7] = target: T3, Tyrosine-protein kinase JAK3 (Homo sapiens, UniProt P52333)
T3 sequence (P52333 whole entry): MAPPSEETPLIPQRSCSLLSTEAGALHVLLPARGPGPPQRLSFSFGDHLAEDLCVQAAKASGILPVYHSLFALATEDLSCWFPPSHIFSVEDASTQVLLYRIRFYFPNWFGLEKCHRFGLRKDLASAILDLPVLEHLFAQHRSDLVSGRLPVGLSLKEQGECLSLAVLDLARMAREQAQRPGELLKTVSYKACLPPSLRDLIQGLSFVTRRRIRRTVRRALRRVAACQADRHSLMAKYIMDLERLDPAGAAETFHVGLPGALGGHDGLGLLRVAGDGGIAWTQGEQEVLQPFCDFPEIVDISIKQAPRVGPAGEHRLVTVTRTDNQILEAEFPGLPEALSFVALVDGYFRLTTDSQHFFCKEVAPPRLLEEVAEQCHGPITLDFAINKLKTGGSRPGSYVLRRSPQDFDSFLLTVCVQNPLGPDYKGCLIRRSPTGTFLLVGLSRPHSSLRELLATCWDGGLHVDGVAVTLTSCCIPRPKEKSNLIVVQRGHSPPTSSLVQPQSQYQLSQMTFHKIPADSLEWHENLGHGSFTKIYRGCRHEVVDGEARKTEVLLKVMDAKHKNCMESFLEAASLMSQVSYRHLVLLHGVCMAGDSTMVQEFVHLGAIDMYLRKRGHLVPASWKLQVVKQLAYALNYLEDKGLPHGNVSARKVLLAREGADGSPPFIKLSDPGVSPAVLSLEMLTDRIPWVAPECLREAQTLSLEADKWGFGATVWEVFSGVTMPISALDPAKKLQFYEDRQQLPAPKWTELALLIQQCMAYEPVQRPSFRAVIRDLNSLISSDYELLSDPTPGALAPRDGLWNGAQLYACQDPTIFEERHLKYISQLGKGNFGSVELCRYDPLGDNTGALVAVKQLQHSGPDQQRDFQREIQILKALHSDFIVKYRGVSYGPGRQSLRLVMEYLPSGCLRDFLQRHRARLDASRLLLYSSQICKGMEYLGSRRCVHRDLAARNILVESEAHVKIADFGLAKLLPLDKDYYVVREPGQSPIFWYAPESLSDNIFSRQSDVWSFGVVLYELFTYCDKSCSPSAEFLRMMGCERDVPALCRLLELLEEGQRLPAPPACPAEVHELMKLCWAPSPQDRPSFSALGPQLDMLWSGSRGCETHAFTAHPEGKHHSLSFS

[8] = target: T2, Tyrosine-protein kinase JAK2; remark: listed apart in the source
[9] = target: T1, Tyrosine-protein kinase JAK1; remark: listed apart in the source
[10] = Intrinsic clearance in rat hepatocytes after 120 mins by LC-MS/MS analysis; assay type: ADME, cell-based, Hepatocyte; conditions: read-out: CLH
[11] = Intrinsic clearance in human hepatocytes after 120 mins by LC-MS/MS analysis; assay type: ADME, cell-based, Hepatocyte; conditions: read-out: CLH
[12] = Solubility of the compound in FaSSIF solution at 100 uM after overnight incubation by UPLC/DAD analysis; assay type: physicochemical

Sequence of Non-receptor tyrosine-protein kinase TYK2 (P29597 whole entry): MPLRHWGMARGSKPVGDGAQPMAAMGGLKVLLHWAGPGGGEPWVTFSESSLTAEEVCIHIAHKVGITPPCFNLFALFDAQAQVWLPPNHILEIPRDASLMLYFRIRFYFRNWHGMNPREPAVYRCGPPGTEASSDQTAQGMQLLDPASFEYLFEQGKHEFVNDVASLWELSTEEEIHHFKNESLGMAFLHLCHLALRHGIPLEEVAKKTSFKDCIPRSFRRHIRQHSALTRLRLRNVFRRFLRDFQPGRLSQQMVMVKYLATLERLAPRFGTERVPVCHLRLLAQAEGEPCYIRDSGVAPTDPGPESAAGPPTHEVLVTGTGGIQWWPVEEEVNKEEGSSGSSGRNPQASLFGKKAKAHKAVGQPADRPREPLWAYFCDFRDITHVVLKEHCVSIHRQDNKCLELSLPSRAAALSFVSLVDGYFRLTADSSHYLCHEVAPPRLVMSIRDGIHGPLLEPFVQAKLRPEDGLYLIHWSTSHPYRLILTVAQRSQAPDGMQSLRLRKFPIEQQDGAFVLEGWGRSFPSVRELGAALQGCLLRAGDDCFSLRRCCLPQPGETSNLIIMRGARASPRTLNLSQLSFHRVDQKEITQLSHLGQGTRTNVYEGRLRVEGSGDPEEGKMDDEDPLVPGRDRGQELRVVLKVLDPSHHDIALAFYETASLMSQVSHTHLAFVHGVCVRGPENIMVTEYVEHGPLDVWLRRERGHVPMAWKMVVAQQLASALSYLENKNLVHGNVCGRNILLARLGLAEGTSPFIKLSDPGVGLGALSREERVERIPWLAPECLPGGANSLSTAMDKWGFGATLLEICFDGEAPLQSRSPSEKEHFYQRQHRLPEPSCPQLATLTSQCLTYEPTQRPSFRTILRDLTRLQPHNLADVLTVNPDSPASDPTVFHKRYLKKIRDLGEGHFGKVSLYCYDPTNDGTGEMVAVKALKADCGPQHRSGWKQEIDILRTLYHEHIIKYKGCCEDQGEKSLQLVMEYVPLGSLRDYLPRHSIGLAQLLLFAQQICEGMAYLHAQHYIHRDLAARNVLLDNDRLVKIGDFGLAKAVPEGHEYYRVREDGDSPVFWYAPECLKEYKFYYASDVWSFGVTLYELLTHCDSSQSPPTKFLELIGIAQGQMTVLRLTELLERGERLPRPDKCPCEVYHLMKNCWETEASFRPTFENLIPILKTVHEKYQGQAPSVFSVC
T2 sequence (O60674 whole entry): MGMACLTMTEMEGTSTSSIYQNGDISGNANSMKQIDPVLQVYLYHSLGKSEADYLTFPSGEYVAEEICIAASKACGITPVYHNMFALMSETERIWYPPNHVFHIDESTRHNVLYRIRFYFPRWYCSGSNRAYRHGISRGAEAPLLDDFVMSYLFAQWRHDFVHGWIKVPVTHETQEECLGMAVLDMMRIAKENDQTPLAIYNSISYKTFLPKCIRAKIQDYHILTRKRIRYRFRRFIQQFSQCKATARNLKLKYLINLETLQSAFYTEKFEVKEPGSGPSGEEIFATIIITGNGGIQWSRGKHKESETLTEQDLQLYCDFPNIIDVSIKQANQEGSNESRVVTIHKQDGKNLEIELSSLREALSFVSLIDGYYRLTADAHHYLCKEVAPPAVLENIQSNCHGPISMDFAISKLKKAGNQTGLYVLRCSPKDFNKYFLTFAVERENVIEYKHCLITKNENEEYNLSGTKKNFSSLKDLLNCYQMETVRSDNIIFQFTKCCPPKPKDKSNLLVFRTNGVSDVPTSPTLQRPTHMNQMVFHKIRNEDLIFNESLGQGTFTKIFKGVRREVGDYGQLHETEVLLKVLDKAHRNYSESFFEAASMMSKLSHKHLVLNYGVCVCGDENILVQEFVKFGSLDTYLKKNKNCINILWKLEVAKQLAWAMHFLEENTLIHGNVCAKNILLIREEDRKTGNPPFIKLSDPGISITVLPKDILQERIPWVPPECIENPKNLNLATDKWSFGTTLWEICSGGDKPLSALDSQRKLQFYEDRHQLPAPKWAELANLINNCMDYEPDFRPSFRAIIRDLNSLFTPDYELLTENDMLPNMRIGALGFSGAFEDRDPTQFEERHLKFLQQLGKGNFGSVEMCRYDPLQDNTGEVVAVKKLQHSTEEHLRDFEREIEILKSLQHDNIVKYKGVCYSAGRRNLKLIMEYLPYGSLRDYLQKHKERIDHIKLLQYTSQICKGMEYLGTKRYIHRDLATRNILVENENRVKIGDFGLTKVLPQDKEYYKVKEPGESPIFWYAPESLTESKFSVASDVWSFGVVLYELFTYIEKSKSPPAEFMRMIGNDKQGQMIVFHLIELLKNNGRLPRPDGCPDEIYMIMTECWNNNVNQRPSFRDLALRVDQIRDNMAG
Sequence of Voltage-gated inwardly rectifying potassium channel KCNH2 (Q12809 whole entry): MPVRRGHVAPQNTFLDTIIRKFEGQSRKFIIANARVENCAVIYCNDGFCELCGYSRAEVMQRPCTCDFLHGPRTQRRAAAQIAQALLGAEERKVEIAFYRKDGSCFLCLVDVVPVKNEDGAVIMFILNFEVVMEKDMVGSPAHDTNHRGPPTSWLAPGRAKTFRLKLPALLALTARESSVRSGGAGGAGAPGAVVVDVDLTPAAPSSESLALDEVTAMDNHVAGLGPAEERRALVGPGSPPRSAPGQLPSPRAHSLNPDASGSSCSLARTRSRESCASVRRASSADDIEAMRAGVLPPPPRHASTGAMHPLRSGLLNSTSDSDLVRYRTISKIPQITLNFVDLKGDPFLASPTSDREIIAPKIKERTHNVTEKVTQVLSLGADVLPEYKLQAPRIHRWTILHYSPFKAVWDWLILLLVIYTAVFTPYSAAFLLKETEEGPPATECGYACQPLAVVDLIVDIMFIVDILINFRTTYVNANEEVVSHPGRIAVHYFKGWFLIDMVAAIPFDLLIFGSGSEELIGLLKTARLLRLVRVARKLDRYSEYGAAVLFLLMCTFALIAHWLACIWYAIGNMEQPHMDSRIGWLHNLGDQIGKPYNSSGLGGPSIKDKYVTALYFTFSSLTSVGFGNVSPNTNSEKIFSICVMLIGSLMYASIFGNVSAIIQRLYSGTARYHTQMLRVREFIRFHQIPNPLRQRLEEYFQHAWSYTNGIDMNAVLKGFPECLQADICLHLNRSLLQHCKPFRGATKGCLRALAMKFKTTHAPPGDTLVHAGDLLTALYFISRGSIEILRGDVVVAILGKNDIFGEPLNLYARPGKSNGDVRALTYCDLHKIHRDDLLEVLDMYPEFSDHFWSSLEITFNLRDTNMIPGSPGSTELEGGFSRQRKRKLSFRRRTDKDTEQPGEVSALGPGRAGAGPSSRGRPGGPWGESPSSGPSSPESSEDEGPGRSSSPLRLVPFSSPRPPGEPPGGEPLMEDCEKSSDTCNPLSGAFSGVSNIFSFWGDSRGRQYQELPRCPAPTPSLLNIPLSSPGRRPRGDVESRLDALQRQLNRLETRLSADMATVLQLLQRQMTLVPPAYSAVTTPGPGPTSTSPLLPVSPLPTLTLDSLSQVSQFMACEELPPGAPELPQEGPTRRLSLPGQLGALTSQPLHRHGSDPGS
T1 sequence (P23458 whole entry): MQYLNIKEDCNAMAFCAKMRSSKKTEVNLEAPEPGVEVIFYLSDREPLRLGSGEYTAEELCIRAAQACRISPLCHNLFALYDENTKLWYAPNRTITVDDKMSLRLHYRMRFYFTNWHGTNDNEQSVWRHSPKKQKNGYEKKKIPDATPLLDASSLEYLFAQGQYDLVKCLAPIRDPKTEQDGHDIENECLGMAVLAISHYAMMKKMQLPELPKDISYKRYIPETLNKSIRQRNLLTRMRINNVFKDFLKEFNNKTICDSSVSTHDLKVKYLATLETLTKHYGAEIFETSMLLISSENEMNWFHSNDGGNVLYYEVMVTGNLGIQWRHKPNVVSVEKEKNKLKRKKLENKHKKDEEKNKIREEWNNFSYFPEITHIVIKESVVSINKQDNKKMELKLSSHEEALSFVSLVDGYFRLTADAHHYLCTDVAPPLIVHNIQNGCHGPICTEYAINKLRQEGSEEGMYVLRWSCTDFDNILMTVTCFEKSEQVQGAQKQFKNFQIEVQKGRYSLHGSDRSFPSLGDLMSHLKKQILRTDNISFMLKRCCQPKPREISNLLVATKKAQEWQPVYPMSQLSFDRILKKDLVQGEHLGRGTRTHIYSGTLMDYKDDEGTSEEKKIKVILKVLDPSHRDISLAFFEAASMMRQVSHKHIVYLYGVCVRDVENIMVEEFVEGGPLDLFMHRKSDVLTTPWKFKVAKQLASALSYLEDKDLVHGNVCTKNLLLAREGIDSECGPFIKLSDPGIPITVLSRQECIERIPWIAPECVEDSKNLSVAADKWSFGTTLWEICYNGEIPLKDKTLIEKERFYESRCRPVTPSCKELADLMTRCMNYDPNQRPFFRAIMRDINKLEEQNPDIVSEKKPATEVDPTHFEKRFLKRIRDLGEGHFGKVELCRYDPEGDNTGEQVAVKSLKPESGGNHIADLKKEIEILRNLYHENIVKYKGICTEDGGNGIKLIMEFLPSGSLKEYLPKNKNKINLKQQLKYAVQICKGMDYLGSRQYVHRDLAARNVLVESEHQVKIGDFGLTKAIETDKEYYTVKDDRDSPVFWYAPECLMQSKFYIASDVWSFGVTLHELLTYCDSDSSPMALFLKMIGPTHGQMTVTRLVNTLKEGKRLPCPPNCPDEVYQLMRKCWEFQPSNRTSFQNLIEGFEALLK

N#C[C@H]1C[C@@H](O)CC[C@@H]1n1cc(C(N)=O)c(Nc2ccc(Cl)cc2)n1
pIC50 [1]: 4.59
bioavailability [2]: 10%

N#Cc1ccc(Nc2nn([C@H]3COCC[C@@H]3C#N)cc2C(N)=O)cc1C1CC1
Ratio IC50 (Homo sapiens): 11
pIC50 [3]: 7.40
pIC50 [4]: 7.14
pIC50 [5]: 6.13
logD at 100 µM [6]: 2.34
pIC50 [7]: < 5.83
pIC50 [8]: 7.80
pIC50 [9]: 8.85

C[C@@H]1NS(=O)(=O)c2ccc(Nc3nn([C@H]4COCC[C@@H]4C#N)cc3C(N)=O)cc21
Ratio IC50 (Homo sapiens): 50
pIC50 [3]: 8.77
CLint scaled [10]: 62 mL/min/kg
pIC50 [4]: 7.80
pIC50 [5]: 6.65
logD at 100 µM [6]: 3.15
CLint scaled [11]: 62 mL/min/kg
pIC50 [7]: 6.50
pIC50 [8]: 8.70
pIC50 [9]: 10.40

COc1ccnc2c(F)cc(Nc3nn([C@H]4COCC[C@@H]4C#N)cc3C(N)=O)cc12
Ratio IC50 (Homo sapiens): 53
pIC50 [3]: 8.10
CLint scaled [10]: 15 mL/min/kg
pIC50 [4]: 7.62
pIC50 [5]: 5.67
logD at 100 µM [6]: 1.4
CLint scaled [11]: 15 mL/min/kg
pIC50 [7]: < 5.83
pIC50 [8]: 8.00
pIC50 [9]: 9.72

N#C[C@H]1CCOC[C@@H]1n1cc(C(N)=O)c(Nc2ccnc(F)c2)n1
pIC50 [3]: 8.52
CLint scaled [10]: 5 mL/min/kg
pIC50 [1]: < 4.22
bioavailability [2]: 19%
logD at 100 µM [6]: 1.18
CLint scaled [11]: 1.5 mL/min/kg
pIC50 [7]: 6.29
solubility at 100 µM [12]: 159 µM (≈ 52.5 µg/mL)

CN([C@H]1CC[C@H](n2cc(C(N)=O)c(Nc3ccc(Cl)cc3)n2)[C@@H](C#N)C1)C1(C)COC1
CLint scaled [10]: 80 mL/min/kg
pIC50 [1]: 4.34
CLint scaled [11]: 32 mL/min/kg

N#Cc1ccc(Nc2nn([C@H]3COCC[C@@H]3C#N)cc2C(N)=O)cc1C#N
Ratio IC50 (Homo sapiens): 6
pIC50 [3]: 7.96
pIC50 [4]: 7.11
pIC50 [5]: 5.92
logD at 100 µM [6]: 1.99
pIC50 [7]: 6.18
pIC50 [8]: 8.30
pIC50 [9]: 9.05

CN(C)c1cc(Nc2nn([C@H]3COCC[C@@H]3C#N)cc2C(N)=O)cc(F)n1
Ratio IC50 (Homo sapiens): 19
pIC50 [3]: 7.89
CLint scaled [10]: 9 mL/min/kg
pIC50 [4]: 7.55
pIC50 [5]: 6.28
bioavailability [2]: 4%
logD at 100 µM [6]: 2.07
CLint scaled [11]: 4 mL/min/kg
pIC50 [7]: 6.15
pIC50 [8]: 8.47
pIC50 [9]: 9.74

N#Cc1ccc(Nc2nn([C@H]3COCC[C@@H]3C#N)cc2C(N)=O)cc1Cl
Ratio IC50 (Homo sapiens): 7
pIC50 [3]: 8.40
pIC50 [4]: 7.59
pIC50 [5]: 6.58
bioavailability [2]: 23%
logD at 100 µM [6]: 2.18
pIC50 [7]: 6.25
pIC50 [8]: 8.57
pIC50 [9]: 9.40

N#C[C@H]1CCOC[C@@H]1n1cc(C(N)=O)c(Nc2ccc([C@H](O)C(F)(F)F)cc2)n1
pIC50 [3]: 9.40
CLint scaled [10]: < 40 mL/min/kg
pIC50 [1]: < 4.22
bioavailability [2]: 9%
logD at 100 µM [6]: 1.93
CLint scaled [11]: < 20 mL/min/kg
pIC50 [7]: 7.00

COc1cc(Nc2nn([C@H]3COCC[C@@H]3C#N)cc2C(N)=O)cc(F)n1 [ATINVICITINIB]
pIC50 [3]: 7.89
CLint scaled [10]: 14 mL/min/kg
pIC50 [4]: 7.41
bioavailability [2]: 49%
logD at 100 µM [6]: 1.89
CLint scaled [11]: 2 mL/min/kg
pIC50 [9]: 9.40

N#C[C@H]1CCOC[C@@H]1n1cc(C(N)=O)c(Nc2cc(F)c3nccc(Cl)c3c2)n1
Ratio IC50 (Homo sapiens): 29
pIC50 [3]: 7.92
CLint scaled [10]: 52 mL/min/kg
pIC50 [4]: 7.85
pIC50 [5]: 6.22
bioavailability [2]: 19%
logD at 100 µM [6]: 1.81
CLint scaled [11]: 25 mL/min/kg
pIC50 [7]: 5.99
pIC50 [8]: 8.15
pIC50 [9]: 9.62

N#C[C@H]1CCOC[C@@H]1n1cc(C(N)=O)c(Nc2ccc(OC(F)F)cc2)n1
Ratio IC50 (Homo sapiens): 11
pIC50 [3]: 9.15
CLint scaled [10]: 59 mL/min/kg
pIC50 [4]: 8.30
pIC50 [1]: 4.60
pIC50 [5]: 7.27
bioavailability [2]: 42%
logD at 100 µM [6]: 2.27
CLint scaled [11]: 28 mL/min/kg
pIC50 [7]: 6.71
pIC50 [8]: 9.10
pIC50 [9]: 10.00

N#C[C@H]1CCOC[C@@H]1n1cc(C(N)=O)c(Nc2ccc(Cl)cc2)n1
pIC50 [3]: 8.70
CLint scaled [10]: 9 mL/min/kg
pIC50 [1]: 4.40
bioavailability [2]: 71%
logD at 100 µM [6]: 2.57
CLint scaled [11]: 85 mL/min/kg
pIC50 [7]: 6.59
solubility at 100 µM [12]: 39 µM (≈ 13.5 µg/mL)

N#C[C@H]1CCOC[C@@H]1n1cc(C(N)=O)c(Nc2ccc(C3CC3)cc2)n1
Ratio IC50 (Homo sapiens): 4
pIC50 [3]: 8.41
CLint scaled [10]: 262 mL/min/kg
pIC50 [4]: 7.43
pIC50 [1]: 4.46
pIC50 [5]: 6.70
logD at 100 µM [6]: 2.58
CLint scaled [11]: 41 mL/min/kg
pIC50 [7]: 6.55
pIC50 [8]: 8.72
pIC50 [9]: 9.30

Cc1ncnc2ccc(Nc3nn([C@H]4COCC[C@@H]4C#N)cc3C(N)=O)cc12
Ratio IC50 (Homo sapiens): 43
pIC50 [3]: 7.85
pIC50 [4]: 7.62
pIC50 [5]: 5.79
logD at 100 µM [6]: 1.02
pIC50 [7]: 6.11
pIC50 [8]: 8.15
pIC50 [9]: 9.80

COc1cc(Nc2nn([C@H]3COCC[C@@H]3C#N)cc2C(N)=O)ccc1C#N
Ratio IC50 (Homo sapiens): 46
pIC50 [3]: 8.05
CLint scaled [10]: < 40 mL/min/kg
pIC50 [4]: 7.72
pIC50 [5]: 6.37
bioavailability [2]: 2%
logD at 100 µM [6]: 1.87
CLint scaled [11]: 24 mL/min/kg
pIC50 [7]: 6.41
pIC50 [8]: 8.49

N#C[C@H]1CCOC[C@@H]1n1cc(C(N)=O)c(Nc2ccc(-n3ccnn3)cc2)n1
pIC50 [3]: 9.30
CLint scaled [10]: 4.8 mL/min/kg
pIC50 [4]: 7.64
pIC50 [5]: 6.60
bioavailability [2]: 3%
logD at 100 µM [6]: 1
CLint scaled [11]: 2.5 mL/min/kg
pIC50 [7]: 6.94
pIC50 [8]: 9.15
pIC50 [9]: 10.22
solubility at 100 µM [12]: 96 µM (≈ 36.3 µg/mL)

— ChEMBL document CHEMBL4028908, “The Discovery of 3-((4-Chloro-3-methoxyphenyl)amino)-1-((3R,4S)-4-cyanotetrahydro-2H-pyran-3-yl)-1H-pyrazole-4-carboxamide, a Highly Ligand Efficient and Efficacious Janus Kinase 1 Selective Inhibitor with Favorable Pharmacokinetic Properties” (J Med Chem, 2017)
